Experiments:
[1] = Plasma and brain pharmacokinetics/toxicokinetics in rats; assay type: in vivo; settings: for AUC(0-t) / Cmax / half-life / Tmax: rat, plasma; for AUC(0-t) / Cmax / half-life: po
Procedure: Blood samples were obtained from catheterized animals housed in Culex cages with an automated blood sampler—a robotic system designed to facilitate the sampling of whole blood from awake and freely moving rodents. At the last withdrawal timepoint (48 h after dosing), blood aliquots were manually collected from the femoral catheter. This experiment was performed by the CRO Oncodesign.
Blood was withdrawn by cardiac puncture, and the brains were harvested.
In both experiments, blood samples were centrifuged ~7 min at 1,600g (4 °C), and the plasma was collected. The brain was weighed and frozen on dry ice. Plasma and brain were stored below −70 °C until analysis.
For all studies in rats and the 91-d toxicity study in dogs, the timepoints on days 1, 28 and 91 were: before dose and 1, 3, 5, 8 and 24 h after dose. For the 28-d toxicity study in dogs, the timepoints on days 1 and 28 were: before dose and 1, 2, 4, 8, and 24 h after dose. In both species, only mean pre-dose plasma concentrations were calculated on day 14 for the 28-d study and on day 28 for the 91-d study. For the experiments in rats, blood samples for drug analysis were taken from the satellite animals used for the toxicokinetic (TK) analysis (n = 3 per sex per timepoint and per group). For experiments performed in dogs, blood samples were drawn from the cephalic or jugular veins of all animals (n = 3 per sex per group).
TK analysis was performed separately per sex on mean concentrations by a non-compartmental analysis (NCA). The linearity of exposure was evaluated by comparison of the AUC/dose and Cmax/dose ratios. Possible accumulation was evaluated from the ratio of AUC on day 28 and on day 1 for each dose level and each sex. Samples lower than the limit of quantification (LLQ) values (that is, < 8.00 ng ml^−1 in rats and <20.0 ng ml^−1 in dogs) were not included in the calculation of TK parameters.

[2] = molecular target: T1, hCB1 point mutant p.E1.49G (Homo sapiens, UniProt P21554, E133G); experiment: THC-induced decrease in cellular respiration, HEK293 cells with mutant hCB1; assay type: cell-based; settings: HEK293, hCB1 p.E1.49G, THC 1 µM
T1 construct: expressed in transfected cells; host or cells: HEK293
T1 sequence (P21554 whole entry E133G): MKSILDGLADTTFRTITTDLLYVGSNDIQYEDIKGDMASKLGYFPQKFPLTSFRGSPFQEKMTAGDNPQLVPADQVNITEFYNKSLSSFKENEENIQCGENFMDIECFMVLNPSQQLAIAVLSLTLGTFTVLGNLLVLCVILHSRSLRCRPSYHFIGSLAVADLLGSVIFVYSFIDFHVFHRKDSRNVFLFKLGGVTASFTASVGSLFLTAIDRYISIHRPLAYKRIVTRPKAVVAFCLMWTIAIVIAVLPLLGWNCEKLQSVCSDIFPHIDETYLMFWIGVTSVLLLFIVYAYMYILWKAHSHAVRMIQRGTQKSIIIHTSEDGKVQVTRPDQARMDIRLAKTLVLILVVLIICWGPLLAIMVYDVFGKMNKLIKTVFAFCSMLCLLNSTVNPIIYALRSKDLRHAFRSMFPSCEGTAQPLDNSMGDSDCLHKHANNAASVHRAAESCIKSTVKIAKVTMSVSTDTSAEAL
Procedure: After 15 min of incubation, THC (1 µM, dissolved in ethanol 0.0034%) or vehicle was added in the culture dishes for 30 min.
Cellular respiration was measured in a calibrated oxygraph (Oxygraph-2k, Oroboros Instruments) equipped with a Clark electrode and DatLab software. Oxygen consumption (OC) rate was used to measure cellular respiration.

mice = experiment: Anxiety-related behavior, elevated plus maze, repeated treatment; assay type: in vivo; settings: mice, elevated plus maze, highest dose tested 15 mg/kg
Text: Anxiety-like behaviors were studied in the elevated plus maze (EPM), a rodent model used to evaluate the putative anxiogenic or anxiolytic effects of pharmacological compounds. Depression-related behaviors were studied using the sucrose preference test as a model of anhedonia, one of the cardinal symptoms of depression.
The EPM apparatus comprises four elevated arms arranged in a cross-like shape, with the two opposite arms enclosed by walls and the other two arms open. For all experiments, mice were placed in the center of the EPM and were free to explore the maze for 5 min after receiving the treatment. The time spent and the number of entries into the open and closed arms were measured by an automatic video tracking system (EthoVision XT version 12, Noldus Information Technology). A decrease in the percentage of visits and/or the time spent in open arms is considered an index of increased anxiety.
The EPM assessment was done on day 26, and the sucrose preference test was done on day 28.

[3] = MAD study, plasma pharmacokinetics; assay type: in vivo, human; settings: for Cmax / Tmax / half-life: human, plasma, oral; for Cmax: read-out: Cmax, mean (±SD); for Tmax: read-out: tmax, median (range)
Procedure: Samples were collected at the same timepoints on day 1 and day 7: before dose and 0.5, 1, 1.5, 2, 3, 4, 6, 8 and 12 h after dose. Additional samples were collected on day 2 to day 6 before dose (that is, 24 h from the previous dose) and on days […] (that is, 24, 48, 72, 96, 120, 144, 168, 216 and 264 h after the last dose at day 7).
For both SAD and MAD studies, the PK parameters were calculated using standard non-compartmental methods for those with sufficient plasma concentration data.

volunteers with CUD = experiment: Phase 2a study, plasma steroids, endocannabinoids, THC and metabolites; assay type: in vivo, human
Procedure: THC and its metabolites (11-OH-THC and 11-COOH-THC) were assessed at the same timepoints. […] THC and its metabolites analyses were performed using PD dataset (n = 13 for both doses).
PK parameters for AEF0117 were subject to descriptive statistics separately for each treatment group.
ALLO, DHEA, PREG and TESTO, as well as AEA and 2-AG, were measured. Data were analyzed using a global crossover MRMM analysis on the PD dataset (n = 13 per dose cohort).

CYP and phase II enzymes = experiment: Drug metabolic pathways (CYP and phase II enzymes), metabolites; assay type: in vitro ADME
AR (androgen receptor) = experiment: Eurofins binding screen; settings: 10 µM
[4] = Sprague Dawley, 1.6 mg/kg, rats po 1.6 mg/kg single
[5] = both sexes, Sprague Dawley SPF, 20 mg/kg, rats po 20 mg/kg single, 91-day tox study
[6] = both sexes, Sprague Dawley SPF, 36 mg/kg, rats po 36 mg/kg single, 28-day tox study
[7] = both sexes, Sprague Dawley SPF, 65 mg/kg, rats po 65 mg/kg single, 91-day tox study
[8] = both sexes, Sprague Dawley, 2 mg/kg, rats po 2 mg/kg single, 28-day tox study
[9] = both sexes, Sprague Dawley, 2 mg/kg, rats po 2 mg/kg single, 91-day tox study
[10] = 0.6 mg/day, MAD Day 1, 0.6 mg/day
[11] = 0.6 mg/day, MAD Day 7, 0.6 mg/day

Work on `COc1ccc(CO[C@H]2CC[C@@]3(C)C(=CC[C@H]4[C@@H]5CC[C@H](C(C)=O)[C@@]5(C)CC[C@@H]43)C2)cc1` [AEF0117, 3β-(4-methoxybenzyloxy)pregn-5-en-20-one] yielded an AUC(0-t) [1, 4] of 1060 ng·h/mL, a Cmax [1, 4] of 116 ng/mL and a half-life ([1]; Sprague Dawley, 1.6 mg/kg, rats po 1.6 mg/kg single, read-out: t½ (converted)) of 13.9 h. For the same compound, the half-life ([1]; Sprague Dawley, rats per os, read-out: half-life) was 7.3 to 15.8 h, the Tmax ([1]; Sprague Dawley, rats po 1.6 mg/kg single) was 4.1 h and the Tmax ([1]; Sprague Dawley, rats, oral, corn oil) was 3 h. For the same compound, the AUC(0-t) ([1]; both sexes, Sprague Dawley SPF, 9 mg/kg, rats po 9 mg/kg single, 28-day tox study) was 6150 ng·h/mL, the half-life ([1]; both sexes, Sprague Dawley SPF, 9 mg/kg, rats po 9 mg/kg single, 28-day tox study, read-out: t½ (converted)) was 11.7 h and the AUC(0-t) [1, 5] was 12700 ng·h/mL. For the same compound, the Cmax [1, 5] was 1060 ng/mL, the half-life ([1]; both sexes, Sprague Dawley SPF, 20 mg/kg, rats po 20 mg/kg single, 91-day tox study, read-out: t½ (converted)) was 7.6 h and the AUC(0-t) [1, 6] was 16500 ng·h/mL. It also gave a Cmax [1, 6] of 2060 ng/mL, a half-life ([1]; both sexes, Sprague Dawley SPF, 36 mg/kg, rats po 36 mg/kg single, 28-day tox study, read-out: t½ (converted)) of 9.8 h and an AUC(0-t) [1, 7] of 18200 ng·h/mL. For the same compound, the Cmax [1, 7] was 1660 ng/mL, the half-life ([1]; both sexes, Sprague Dawley SPF, 65 mg/kg, rats po 65 mg/kg single, 91-day tox study, read-out: t½ (converted)) was 10.4 h and the Tmax ([1]; both sexes, Sprague Dawley SPF, rats po 9 mg/kg single, 28-day tox study) was 3 h. For the same compound, the Tmax ([1]; both sexes, Sprague Dawley SPF, rats po 20 mg/kg single, 91-day tox study) was 3 h, the Tmax ([1]; both sexes, Sprague Dawley SPF, rats po 36 mg/kg single, 28-day tox study) was 3 h and the Tmax ([1]; both sexes, Sprague Dawley SPF, rats po 65 mg/kg single, 91-day tox study) was 3 h. For the same compound, the AUC(0-t) [1, 8] was 1450 ng·h/mL, the Cmax [1, 8] was 106 ng/mL and the half-life ([1]; both sexes, Sprague Dawley, 2 mg/kg, rats po 2 mg/kg single, 28-day tox study, read-out: t½ (converted)) was 8 h. The AUC(0-t) [1, 9] was 1210 ng·h/mL, the Cmax [1, 9] was 86.3 ng/mL and the half-life ([1]; both sexes, Sprague Dawley, 2 mg/kg, rats po 2 mg/kg single, 91-day tox study, read-out: t½ (converted)) was 7.7 h. For the same compound, the Cmax ([1]; both sexes, Sprague Dawley, 9 mg/kg, rats po 9 mg/kg single, 28-day tox study) was 578 ng/mL, the Tmax ([1]; both sexes, Sprague Dawley, rats po 2 mg/kg single, 28-day tox study) was 4 h and the “time to steady state” value ([1]; rats and dogs, repeated administration) was “approximately 14 days”. The “effect on cellular respiration with mutant hCB1” value [2] was “loss of effect”, the “Overall effect: increase in anxiety-related behaviors” value (mice) was “No” and the “concentration at 264 h as share of Cmax at Day 7” value ([3]; MAD, all doses) was 4%. It also gave a Cmax [3, 10] of 4.6 ± 1.4 ng/mL, a Tmax [3, 10] of 3 h and a half-life ([3]; 0.6 mg/day, MAD Day 7, 0.6 mg/day, 0-264 h, read-out: t½, min-max) of 153 to 252 h. It also gave a Cmax [3, 11] of 3.3 ± 0.3 ng/mL, a Tmax [3, 11] of 3 h and a Cmax ([3]; 2 mg/day, MAD Day 1, 2 mg/day) of 11.6 ± 3.7 ng/mL. For the same compound, the Tmax ([3]; 2 mg/day, MAD Day 1, 2 mg/day) was 3 h, the half-life ([3]; 2 mg/day, MAD Day 7, 2 mg/day, 0-264 h, read-out: t½, min-max) was 152 to 240 h and the Cmax ([3]; 2 mg/day, MAD Day 7, 2 mg/day) was 14.5 ± 4.9 ng/mL. For the same compound, the Tmax ([3]; 2 mg/day, MAD Day 7, 2 mg/day) was 3 h, the Cmax ([3]; 6 mg/day, MAD Day 1, 6 mg/day) was 35.9 ± 13.5 ng/mL and the Tmax ([3]; 6 mg/day, MAD Day 1, 6 mg/day) was 3.5 h. For the same compound, the half-life ([3]; 6 mg/day, MAD Day 7, 6 mg/day, 0-264 h, read-out: t½, min-max) was 160 to 258 h, the Cmax ([3]; 6 mg/day, MAD Day 7, 6 mg/day) was 37.1 ± 7.3 ng/mL and the Tmax ([3]; 6 mg/day, MAD Day 7, 6 mg/day) was 2.5 h. For the same compound, the half-life ([3]; humans, MAD study, range between participants, read-out: terminal half-life) was 152 to 259 h, the “plasma THC and its metabolites, AEF0117 vs placebo periods” value (volunteers with CUD) was “no statistically significant differences” and the “interaction with major drug metabolic pathways (CYP and phase II enzymes)” value (CYP and phase II enzymes) was “does not modify the activity of, nor is it notably metabolized by”. For the same compound, the “Percent inhibition of control specific binding” value (AR (androgen receptor)) was 20%.

From publication PMC10287566, “Signaling-specific inhibition of the CB1 receptor for cannabis use disorder: phase 1 and phase 2a randomized trials” (Nature Medicine, 2023)
